By IC50 is commonly meant the point on the concentration scale where inhibition reaches its midpoint. Broadly, the viability, T/C is the ratio of treated to control.

In PubChem BioAssay AID1963836 (Molecular Pharmacology Branch, DTP, NCI, 2024) one finds IC50 and viability, T/C data, which are given here for 5 compounds.

The subject of this assay is 857933-349-R-J2-PDC complex spheroid viability. The assay can be described thus: Anticancer human tumor 857933-349-R-J2-PDC patient-derived colon adenocarcinoma cell line growth inhibition [POLQ]. Particulars: for viability, T/C: stronger effect = lower value. The method, then:
Multicellular complex tumor spheroid response to Polymerase (POL) inhibitors (novobiocin, ART-558, RP6685) in combination with a variety of drugs and investigational agents in selected tumor cell lines
The POL inhibitors (novobiocin, ART-558, and RP6685) were evaluated both individually and in combination with standard of care and investigational anticancer small molecules within a complex spheroid model of solid tumors. . Complex spheroids include a stromal component modeled by human endothelial cells (HUVEC) and fibroblasts modeled by human mesenchymal stem cells (MSCs). The concentration ranges selected for each drug and investigational agent were based upon clinically achievable concentrations if the clinical Cmax of the agent was known.
Compounds. The drugs and investigational agents: novobiocin (NSC847541), ART-558 (NSC835418), RP-6685 (NSC848927), peposertib (NSC802822), ceralasertib (NSC780249), elimusertib (NSC800525), camonsertib (NSC841442), AZD-1390 (NSC803789), olaparib (NSC753686), talazoparib (NSC767125), rucaparib (NSC756644), sotorasib (NSC818433), MRTX-1133 (NSC836407), SN-38 (NSC673596), topotecan (NSC609699), epotoside (NSC141540), doxorubicin (NSC123127), gemcitabine (NSC613327), 5-fluorouracil (NSC19893), paclitaxel (NSC125973), vemurafenib (NSC761431), MSA-2 (NSC828583), SN-011 (NSC837082), adavosertib (NSC754352), prexasertib (NSC758257), carboplatin (NSC241240) and oxaliplatin (NSC266046), were obtained from the National Cancer Institute (NCI) Developmental Therapeutics Program Chemical Repository (21). The FDA-approved anticancer drug set is available from the Developmental Therapeutics Program at https://dtp.cancer.gov/organization/dscb/obtaining/. […] The stock solutions were prepared in dimethyl sulfoxide (DMSO, Sigma-Aldrich, St. Louis, MO, cat. D2650), except for the platinum compounds which were prepared in saline (Quality Biological, Gaithersburg, MD, cat. 114-055-101), at 800-fold the tested concentration and stored at -70 degrees C prior to their use. All drugs and investigational agents were tested over a range starting from a high concentration at or near the clinical Cmax and decreasing in half-log increments. If the clinical Cmax for an agent had not been determined, the highest concentration tested was 10 microM, except for SN-38, which was tested at a high concentration of 1 microM.
Cell Culture. All cells were maintained in an incubator at 37 degrees C and 5% CO2 with 95% humidity. The PDC lines were cultured according to standard operating procedures established by the NCI PDMR (https://pdmr.cancer.gov). Table 3 of the manuscript, lists the cell lines along with the number of the three cell types plated to form the mct-spheroids and media for tumor cell growth. After thawing, all PDC lines, except 997537-175-T-J1-PDC and 415267-285-R-J2-PDC, were cultured in Matrigel-coated flasks prepared with a working solution of 1X Ham's F-12 nutrient mix, without supplementation (Thermo Fisher Scientific, cat. 11765054), 100 U/mL penicillin-streptomycin (Thermo Fisher Scientific, cat. 15140122), and 2.5% Matrigel (Corning Inc., Corning, NY, cat. 354248) for the first three passages. The two PDC lines 997537-175-T-J1-PDC and 415267-285-R-J2-PDC were cultured on uncoated flasks. The 857933-349-R-J2-PDC line was cultured in 6C/Colon 1B media containing advanced DMEM/F-12 (Thermo Fisher Scientific, cat. 12634028), 10 mM HEPES (Thermo Fisher Scientific, cat. 15630080), 1X GlutaMAX supplement (Thermo Fisher Scientific, cat. 35050061), 0.1 mg/mL primocin (InvivoGen, San Diego, CA, cat. ant-pm-2), 10% defined fetal bovine serum, heat inactivated (HyClone Laboratories Inc., Logan, UT, cat. SH30070.03HI), 50% L-WRN conditioned media (ATCC, cat. CRL-3276), 1.25 mM N-Acetyl-L-cysteine (Sigma-Aldrich, cat. A9165), 10 mM nicotinamide (Sigma-Aldrich, cat. N0636), 1X B-27 supplement (Thermo Fisher Scientific, cat. 17504044), 1X N-2 supplement (Thermo Fisher Scientific, cat. […]

Values joined by “and” are separate entries in the source; they are usually repeats but may differ in a detail not shown here. Identical values can stand only once.
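Also: spheroids exposed to compounds for seven days before readout.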

As to `CC(C)n1c(=O)n(C)c2cnc3cc(F)c(-c4ccc(OCCCN5CCCCC5)nc4)cc3c21` + Cc1cccc(N(C)C(=O)C2C(O)CCN2c2nc(C)cc(C(F)(F)F)c2C#N)c1, the half-inhibitory concentration (IC50) was above 10 µM (curve of first compound, second compound 0.0316 µM); above 10 µM (curve of first compound, second compound 0.1 µM); above 10 µM (curve of first compound, second compound 0.316 µM); above 10 µM (curve of first compound, second compound 1 µM); above 10 µM (curve of first compound, second compound 3.16 µM); above 10 µM (curve of first compound, second compound 10 µM). The viability, T/C (second compound 0.0316 µM, first compound 0.0316 µM) was 106%; the viability, T/C (second compound 0.0316 µM, first compound 0.1 µM) was 78.1%; the viability, T/C (second compound 0.0316 µM, first compound 0.316 µM) was 90.2%; the viability, T/C (second compound 0.0316 µM, first compound 1 µM) was 113%; the viability, T/C (second compound 0.0316 µM, first compound 3.16 µM) was 107%; the viability, T/C (second compound 0.0316 µM, first compound 10 µM) was 69.8%. Also, the viability, T/C was 97.7% (second compound 0.1 µM, first compound 0.0316 µM); 107% (second compound 0.1 µM, first compound 0.1 µM); 98.9% (second compound 0.1 µM, first compound 0.316 µM); 105% (second compound 0.1 µM, first compound 1 µM); 87% (second compound 0.1 µM, first compound 3.16 µM); 68.5% (second compound 0.1 µM, first compound 10 µM). In addition, the viability, T/C was 97.2% (second compound 0.316 µM, first compound 0.0316 µM); 94.3% (second compound 0.316 µM, first compound 0.1 µM); 104% (second compound 0.316 µM, first compound 0.316 µM); 94.9% (second compound 0.316 µM, first compound 1 µM); 105% (second compound 0.316 µM, first compound 3.16 µM); 88% (second compound 0.316 µM, first compound 10 µM). The viability, T/C is 80.7% (second compound 1 µM, first compound 0.0316 µM); 73.8% (second compound 1 µM, first compound 0.1 µM); 92.6% (second compound 1 µM, first compound 0.316 µM); 110% (second compound 1 µM, first compound 1 µM); 114% (second compound 1 µM, first compound 3.16 µM); 66.9% (second compound 1 µM, first compound 10 µM). The viability, T/C reads like this: (second compound 3.16 µM, first compound 0.0316 µM) 83.6%; (second compound 3.16 µM, first compound 0.1 µM) 89.2%; (second compound 3.16 µM, first compound 0.316 µM) 116%; (second compound 3.16 µM, first compound 1 µM) 79.3%; (second compound 3.16 µM, first compound 3.16 µM) 102%; (second compound 3.16 µM, first compound 10 µM) 75%. For the same compound, the viability, T/C reads like this: (second compound 10 µM, first compound 0.0316 µM) 73.2%; (second compound 10 µM, first compound 0.1 µM) 65.9%; (second compound 10 µM, first compound 0.316 µM) 87.9%; (second compound 10 µM, first compound 1 µM) 97.3%; (second compound 10 µM, first compound 3.16 µM) 106%; (second compound 10 µM, first compound 10 µM) 64.5%.
As to `Cn1ncnc1[C@H]1c2n[nH]c(=O)c3cc(F)cc(c23)N[C@@H]1c1ccc(F)cc1`, the viability, T/C reads like this: (compound 0.000316 µM) 96.9% and 93.8% and 114%; (compound 0.001 µM) 93.6% and 90.7% and 86.2%; (compound 0.00316 µM) 105% and 103% (2×); (compound 0.01 µM) 99.3% and 97.8% and 73.1%; (compound 0.0316 µM) 85.6% and 89.2% and 103%; (compound 0.1 µM) 90.2% and 97.5% and 88.9%. Further, the IC50 (curve of compound) is above 0.1 µM.
Regarding `CC(C)n1c(=O)n(C)c2cnc3cc(F)c(-c4ccc(OCCCN5CCCCC5)nc4)cc3c21`, the viability, T/C is, setting by setting: (compound 0.0316 µM) 85.8% and 92.4% and 99%; (compound 0.1 µM) 84.1% and 96.4% and 101%; (compound 0.316 µM) 92.8% and 101% and 115%; (compound 1 µM) 91.6% and 100% and 106%; (compound 3.16 µM) 94.7% and 113% and 97.5%; (compound 10 µM) 63.6% and 98.3% and 110%. Where the note is “curve of compound”, the IC50 was above 10 µM.
For `CCc1c2c(nc3ccc(O)cc13)-c1cc3c(c(=O)n1C2)COC(=O)[C@]3(O)CC`, the viability, T/C was 76.9% and 53.6% and 65.9% (compound 0.00316 µM); 60.1% and 67.4% and 65.8% (compound 0.01 µM); 35.1% and 21.3% and 31.4% (compound 0.0316 µM); 22.3% and 16.2% and 23.3% (compound 0.1 µM); 17.8% and 10.6% and 15.8% (compound 0.316 µM); 4.53% and 2.45% and 5.61% (compound 1 µM). Further, the half-inhibitory concentration (IC50) (curve of compound) is 0.0156 µM and 0.0136 µM and 0.0165 µM.
With `O=C(Nc1ccc(O)c(NS(=O)(=O)c2ccc(F)cc2)c1)c1ccc(-c2ccccc2)cc1`, the viability, T/C by setting is: (compound 0.0316 µM) 93.1% and 99.4% and 97.2%; (compound 0.1 µM) 97.3% and 105% and 102%; (compound 0.316 µM) 82.5% and 107% and 105%; (compound 1 µM) 94.7% and 94% and 82.6%; (compound 3.16 µM) 95.3% and 86.2% and 100%; (compound 10 µM) 77.8% and 88.1% and 78.2%. Also, the half-inhibitory concentration (IC50) (curve of compound) was above 10 µM.
